This is an account of results in ChEMBL document CHEMBL1127345, “Synthesis, binding properties, and 18F labeling of fluorocarazolol, a high-affinity beta-adrenergic receptor antagonist” (J Med Chem, 1994).

Common to all, as to format: physicochemical
Data set [1] can be described thus: The octanol-water partition coefficient at pH 10.0.
Data set [2] in a line: The octanol-water partition coefficient at pH 10.8.
A short description of data set [3]: The octanol-water partition coefficient at pH 4.5.
A short description of data set [4]: The octanol-water partition coefficient at pH 5.8.
Data set [5] in a line: The octanol-water partition coefficient at pH 6.4.
Data set [6] in a line: The octanol-water partition coefficient at pH 7.0.
A short description of data set [7]: The octanol-water partition coefficient at pH 7.5.
A short description of data set [8]: The octanol-water partition coefficient at pH 9.4.
The nature of data set [9]: The octanol-water partition coefficient at pH 3.3.
Data set [10] in a line: The octanol-water partition coefficient at pH 8.3.

As for `CC(C)NCC(O)COc1cccc2[nH]c3ccccc3c12` (stereo not given) [CARAZOLOL], the logD turned out to be 2.5 in [1]; 2.43 in data set [2]; 0.3 in data set [3]; 0.42 in data set [4]; 0.68 in data set [5]; 1.07 in data set [6]. Further, the logD in data set [7] is 1.51; in [8], 2.44; in [9] it was 0.17; in [10], 2.13.
`CC(CF)NCC(O)COc1cccc2[nH]c3ccccc3c12` (stereo not given) [FLUOROCARAZOLOL]: the logD in data set [1] was 2.81; in data set [2], 2.81; in data set [3], 0.38; in data set [4], 1.11; in data set [5], 1.76; in data set [6], 2.2. The logD worked out at 2.48 in data set [7], 2.8 in data set [8], 0.03 in data set [9] and 2.7 in data set [10].

Usually logD stands for the decadic logarithm of the distribution of all forms, ionised or not, between an organic phase and buffer at a given pH. Low readings indicate lower lipophilicity, high ones higher lipophilicity.
